According to paper PMC9146426, “3,6′- and 1,6′-Dithiopomalidomide Mitigate Ischemic Stroke in Rats and Blunt Inflammation” (Pharmaceutics, 2022):

Molecular target: T1, cereblon (Homo sapiens, UniProt Q96SW2)
T1 construct: gene CRBN; cereblon/DDB1-CUL4A-Rbx1 complex; with DDB1-CUL4A-Rbx1
Assay: AlphaScreen bead-based cereblon binding assay (BPS Bioscience #[…]) with BRD3

T1 sequence (Q96SW2 whole entry): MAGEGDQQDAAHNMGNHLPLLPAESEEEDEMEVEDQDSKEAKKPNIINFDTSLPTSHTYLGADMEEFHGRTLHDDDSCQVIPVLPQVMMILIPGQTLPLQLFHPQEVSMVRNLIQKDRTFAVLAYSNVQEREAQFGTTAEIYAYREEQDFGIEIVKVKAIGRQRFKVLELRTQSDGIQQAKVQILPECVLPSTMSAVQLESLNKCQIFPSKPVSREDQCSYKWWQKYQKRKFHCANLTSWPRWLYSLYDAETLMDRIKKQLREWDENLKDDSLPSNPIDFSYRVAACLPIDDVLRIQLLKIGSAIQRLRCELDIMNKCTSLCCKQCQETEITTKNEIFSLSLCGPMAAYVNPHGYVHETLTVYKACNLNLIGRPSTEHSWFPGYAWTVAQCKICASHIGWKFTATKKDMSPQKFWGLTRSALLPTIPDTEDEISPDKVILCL
T1 sequence (Q16531 2-1140 partner): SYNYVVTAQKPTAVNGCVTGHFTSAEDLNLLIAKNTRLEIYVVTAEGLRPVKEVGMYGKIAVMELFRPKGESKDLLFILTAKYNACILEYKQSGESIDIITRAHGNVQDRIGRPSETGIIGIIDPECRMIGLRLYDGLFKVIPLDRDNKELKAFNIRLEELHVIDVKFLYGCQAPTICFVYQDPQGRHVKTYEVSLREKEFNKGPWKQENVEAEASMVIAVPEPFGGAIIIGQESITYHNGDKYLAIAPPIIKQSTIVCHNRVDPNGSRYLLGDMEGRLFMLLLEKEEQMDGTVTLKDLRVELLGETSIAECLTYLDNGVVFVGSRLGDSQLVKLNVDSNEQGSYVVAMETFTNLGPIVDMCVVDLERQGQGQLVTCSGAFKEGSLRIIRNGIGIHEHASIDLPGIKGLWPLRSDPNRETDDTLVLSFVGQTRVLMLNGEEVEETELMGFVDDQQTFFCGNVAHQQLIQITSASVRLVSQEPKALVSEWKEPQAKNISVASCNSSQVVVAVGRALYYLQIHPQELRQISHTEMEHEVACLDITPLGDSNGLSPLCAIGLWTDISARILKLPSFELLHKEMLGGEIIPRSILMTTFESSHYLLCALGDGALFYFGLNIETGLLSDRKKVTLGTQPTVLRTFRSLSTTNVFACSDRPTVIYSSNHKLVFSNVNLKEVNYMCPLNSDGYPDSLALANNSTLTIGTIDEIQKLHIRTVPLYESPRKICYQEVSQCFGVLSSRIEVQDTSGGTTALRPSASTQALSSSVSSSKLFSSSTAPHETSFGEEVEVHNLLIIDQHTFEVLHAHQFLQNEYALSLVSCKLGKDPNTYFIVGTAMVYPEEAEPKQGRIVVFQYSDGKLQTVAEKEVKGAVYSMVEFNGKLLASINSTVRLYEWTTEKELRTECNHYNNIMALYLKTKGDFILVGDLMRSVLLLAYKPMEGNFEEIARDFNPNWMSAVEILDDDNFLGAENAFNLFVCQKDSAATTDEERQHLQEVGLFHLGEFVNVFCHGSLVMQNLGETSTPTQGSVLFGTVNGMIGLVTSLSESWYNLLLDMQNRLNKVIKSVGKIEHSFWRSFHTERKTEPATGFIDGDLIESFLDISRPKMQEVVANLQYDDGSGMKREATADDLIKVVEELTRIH
T1 sequence (Q13619 whole entry partner): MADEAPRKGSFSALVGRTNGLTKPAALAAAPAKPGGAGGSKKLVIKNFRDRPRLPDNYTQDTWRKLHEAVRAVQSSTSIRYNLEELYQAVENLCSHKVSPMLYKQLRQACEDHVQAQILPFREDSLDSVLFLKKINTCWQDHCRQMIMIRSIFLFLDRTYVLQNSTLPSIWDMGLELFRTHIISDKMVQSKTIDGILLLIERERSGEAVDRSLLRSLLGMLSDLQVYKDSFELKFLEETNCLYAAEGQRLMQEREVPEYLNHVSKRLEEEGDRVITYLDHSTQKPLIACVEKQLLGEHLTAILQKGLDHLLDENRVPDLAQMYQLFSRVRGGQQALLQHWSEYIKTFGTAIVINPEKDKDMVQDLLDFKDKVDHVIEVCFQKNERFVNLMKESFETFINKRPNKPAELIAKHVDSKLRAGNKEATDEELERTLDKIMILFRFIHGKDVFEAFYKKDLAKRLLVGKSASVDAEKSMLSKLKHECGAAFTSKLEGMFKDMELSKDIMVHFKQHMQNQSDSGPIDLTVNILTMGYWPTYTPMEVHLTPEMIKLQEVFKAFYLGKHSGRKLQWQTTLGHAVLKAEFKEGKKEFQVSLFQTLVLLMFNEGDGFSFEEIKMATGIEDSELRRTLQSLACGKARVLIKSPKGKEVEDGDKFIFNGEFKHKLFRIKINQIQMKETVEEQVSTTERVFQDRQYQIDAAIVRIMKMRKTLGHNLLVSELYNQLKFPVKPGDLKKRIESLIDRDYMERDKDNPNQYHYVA
T1 sequence (P62877 whole entry partner): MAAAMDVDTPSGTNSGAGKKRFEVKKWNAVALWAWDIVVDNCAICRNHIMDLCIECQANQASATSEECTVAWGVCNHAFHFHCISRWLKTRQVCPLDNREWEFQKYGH

SMILES: Nc1cccc2c1C(=O)N(C1CCC(=S)NC1=O)C2=S (centres unmarked) [1,6′-DP, 1,6′-dithiopomalidomide]
- IC50: 1520 nM

SMILES: Nc1cccc2c1C(=S)N(C1CCC(=S)NC1=O)C2=O (centres unmarked) [3,6′-DP, 3,6′-dithiopomalidomide]
- IC50: 940 nM
